Experiments:
wild-type HIV-1 NL4-3 = test: HIV-1 replication in U87MG cells (p24 ELISA); format: cell-based; details: for REPLICATION @ 3 μM % Inhibition vs. DMSO control: U87MG cells; for inhibition at 3 µM: Human immunodeficiency virus 1, NL43, U-87 MG, 96 h, read-out: REPLICATION @ 3 μM % Inhibition vs. DMSO control
Source text: In particular disclosed embodiments, the compound may be used to block Nef-dependent HIV replication and infectivity. FIG. 7 illustrates the chemical structures of the compounds identified by the Nef:Hck HTS campaign and subsequently shown to block Nef-dependent enhancement of HIV-1 replication in two different cell lines are shown, along with the IC50 values for each compound against Hck alone vs. the Nef:Hck complex. FIG. 8 illustrates results concerning HIV replication. […] Viral output for the DMSO-treated control cultures was consistently greater than 100-fold over the HIV input, typically ranging from 9,000-12,000 p24 equivalents/ml. Virus replication was assessed by p24 ELISA after 4 days (U87MG) or 9 days (CEM-T4). Data are expressed as the mean percent inhibition as compared to control cultures incubated with the carrier solvent (DMSO)±S.E.M. (n=4). Results of replication and cytotoxicity experiments with all certain hit compounds from the primary screen are shown in FIG. 3 and FIG. 4. FIG. 9 concerns infectivity assays. Compounds (3 μM) were added to cultures of the reporter cell line TZM-b1 followed by infection with either wild-type or Nef-defective (ΔNef) HIV NL4-3 in 96-well plates. After 48 hours, relative virus infectivity was assessed as luciferase production in infected cells. Results are plotted as the mean percent of HIV-1 infectivity observed in control cells incubated with the carrier solvent DMSO±S.E.M. (n=3). In the absence of Nef, infectivity is reduced by about 50% (ΔNef; dashed line shown for reference).
(§1) HIV assays: Viral stocks were prepared by transfection of 293T cells (ATCC) with wild-type and Nef-defective (ΔNef) proviral genomes (NL4—3 strain) and amplified in the T-cell line, MT2 (NIH AIDS Research and Reference Reagent Program). Viral replication was assessed in the U87MG astroglioma cell line engineered to express the HIV-1 co-receptors CD4 and CXCR4 or in the T-lymphoblast cell line, CEM-T4. Both the U87 MG and CEM-T4 cell lines support HIV-1 replication in a Nef-dependent manner, and were obtained from the NM AIDS Research and Reference Reagent Program. Compounds were solubilized in DMSO, and added to the cell culture medium 1 h prior to infection with HIV. Viral replication was monitored for either 4 days (U87MG) or 9 days (CEM-T4) by measuring p24 Gag protein levels in the culture supernatant using standard ELISA-based techniques. HIV-1 infectivity was measured using the reporter cell line, TZM-b1 (NM AIDS Research and Reference Reagent Program). Cells were grown in 96-well plates (2.5×10^4) 8 h prior to virus infection to permit adherence. Compounds were pre-incubated with wild-type HIV-1 for 4 h prior to addition to the cells in a final volume of 200 μl. After 48 h at 37° C., the cells were washed with PBS and lysed in luciferase lysis buffer (Promega) by rocking for 15 min Lysates (40 μl) were transferred to white 96-well plates and 50 μl luciferase reagent (Promega) was injected into each well. Readings were recorded with a delay time of 2 sec and an integration period of 10 sec.

HIV-1 NL4-3 = test: HIV-1 infectivity in TZM-b1 reporter cells (luciferase); format: cell-based; details: for inhibition at 3 µM: Human immunodeficiency virus 1, NL43, TZM-b1, 48 h, read-out: INFECTIVITY @ 3 μM % Inhibition vs. DMSO control; for INFECTIVITY @ 3 μM % Inhibition vs. DMSO control: TZM-b1 reporter cells
Description: Compounds (1 μM) shown in FIG. 7 were added to cultures of U87MG and CEM-T4 cells in 96-well plates, followed by infection with wild-type HIV-1 NL4-3 (50 pg p24 equivalents/ml) 1 hour later. […] Virus replication was assessed by p24 ELISA after 4 days (U87MG) or 9 days (CEM-T4). Data are expressed as the mean percent inhibition as compared to control cultures incubated with the carrier solvent (DMSO)±S.E.M. (n=4). […] FIG. 9 concerns infectivity assays. Compounds (3 μM) were added to cultures of the reporter cell line TZM-b1 followed by infection with either wild-type or Nef-defective (ΔNef) HIV NL4-3 in 96-well plates. After 48 hours, relative virus infectivity was assessed as luciferase production in infected cells. […]
as §1, with “Both the U87 MG and CEM-T4 cell lines support HIV-1 replication in a Nef-dependent manner, and were obtained from the NM AIDS Research and Reference Reagent Program.” left out

[1] = Preliminary pharmacokinetics in C3H mice; details: for T1/2: i.v., 2 mg/kg; for % F (oral bioavailability): p.o., 10 mg/kg
Description: Compounds were administered to male C3H mice via the i.v. and p.o. routes, and plasma concentrations were assessed by LC-MS/MS at the time points indicated. Plasma levels were determined for three mice at each time point and are shown as the mean±S.D.

cell-surface MHC-I = test: Nef-induced MHC-I downregulation in CEM-GFP cells (flow cytometry); format: cell-based; details: CEM-GFP cells infected with HIV-1 WT NL43, 8 days
Description: (§2) CEM-GFP cells were treated for 4 hrs with compounds or DMSO (control), then infected with 100 pg/ml HIV-1 WT NL43 or 500 pg/ml ΔNef-NL43.

cell-surface CD4 = test: Nef-induced CD4 downregulation in CEM-GFP cells (flow cytometry); format: cell-based; details: CEM-GFP cells infected with HIV-1 WT NL43, 8 days
Description: as §2
Percentages on the flow diagrams (FIGS. 33A-33E) show percent of cells positive for CD4.

Row | Compound | REPLICATION @ 3 μM % Inhibition vs. DMSO control (wild-type HIV-1 NL4-3) | inhibition at 3 µM (HIV-1 NL4-3) | inhibition at 3 µM (wild-type HIV-1 NL4-3) | other results
1 | NC(=S)n1nc(-c2ccc([N+](=O)[O-])cc2)c(CCc2cccc(Cl)c2)c1O [JZ-1-96-2-1] | Toxic | 59.5% | – | T1/2 [1]: 1.53 h; % F (oral bioavailability) [1]: 85%
2 | COc1ccc(-c2nn(C3=NCCN3)c(O)c2CCc2ccc(F)cc2)cc1 [JV-1-74-2] | – | 36.7% | 46.8% | –
3 | N=C(N)n1nc(C2CC2)c(CCc2ccc(F)cc2)c1O [JV-1-89] | 56.1% | – | – | INFECTIVITY @ 3 μM % Inhibition vs. DMSO control (HIV-1 NL4-3): 28.0%
4 | O=[N+]([O-])c1ccc(-c2n[nH]c(O)c2Cc2cccc(Cl)c2)cc1 [JZ-1-97-2-2] | – | 12.7% | 0% | –
5 | Oc1[nH]nc(-c2ccc(F)cc2)c1/N=N/c1cccnc1 [JZ-1-110-1] | – | 3.3% | 0% | –
6 | N=C(N)n1nc(-c2ccoc2)c(CCc2ccc(F)cc2)c1O [JV-1-96] | Toxic | – | – | INFECTIVITY @ 3 μM % Inhibition vs. DMSO control (HIV-1 NL4-3): 11.0%
7 | NC(=S)n1nc(-c2ccc(F)cc2)c(/N=N/c2cncc(Cl)c2)c1O [JZ-1-107] | – | 19.7% | 0% | –
8 | COc1cccc(CCc2c(-c3ccc([N+](=O)[O-])cc3)nn(C(=N)N)c2O)c1 [JZ-1-135-1] | – | 9.5% | 54.1% | –
9 | NC(=S)n1nc(-c2ccc([N+](=O)[O-])cc2)c(Cc2cccc(Cl)c2)c1O [JZ-1-97-2-1] | – | 56.6% | 51.6% | Reversal of Nef-mediated MHC-I downregulation (cell-surface MHC-I): reverse Nef-mediated MHC-I downregulation to the same extent observed in cells infected with Nef-defective HIV-1; Reversal of Nef-mediated CD4 downregulation (cell-surface CD4): reverse Nef-mediated CD4 downregulation to the same extent observed in cells infected with Nef-defective HIV-1; T1/2 [1]: 1.66 h; % F (oral bioavailability) [1]: 57%
